Data set [1] has as its system genotype 1b (Con-1) HCV replicon in Huh-7 cells. As to the kind of experiment: HCV replicon luciferase assay (1b replicon). The format is cell-based. The conditions noted are these: Hepatitis C virus. Here is the method: The cell lines used to evaluate compounds consist of a human hepatocyte derived cell line (Huh-7) that constitutively expresses a genotype 1b (Con-1) HCV replicon or a genotype 1b (Con-1) HCV replicon with an asparagine replacing the cysteine at amino acid 316, or a genotype 2a (JFH-1) replicon, containing a Renilla luciferase reporter gene. These cells were maintained in Dulbecco's modified Eagle medium (DMEM) containing 10% FBS, 100 U/mL penicillin/streptomycin and 1.0 mg/mL G418.
HCV Replicon Luciferase Assay.
After 3 days incubation at 37° C., cells were analyzed for Renilla Luciferase activity using the EnduRen substrate (Promega cat #E6485) according to the manufacturer's directions. Briefly, the EnduRen substrate was diluted in DMEM and then added to the plates to a final concentration of 7.5 μM. The plates were incubated for at least 1 h at 37° C. then read on a Viewlux Imager (PerkinElmer) using a luminescence program.
On the technique in general: A replicon is a self-replicating genome or part of one, used to study replication in cells.

The target in data set [2] is HCV NS5B genotype 1b (Con1) (Hepatitis C virus genotype 1b (isolate Con1) (HCV), UniProt Q9WMX2). Nature of the data set: HCV NS5B RdRp enzyme assay (1b enzyme). The format is biochemical. The conditions noted are these: genotype 1b NS5B enzyme. On the procedure:
HCV NS5B RdRp Cloning, Expression, and Purification.
The cDNA encoding NS5B proteins of HCV genotype 1b (Con1), a genotype 1b variant with amino acid 316 mutated from cysteine to asparagine, and genotype 2a (JFH-1), were cloned into the pET21a expression vector. Each untagged protein was expressed with an 18 amino acid C-terminal truncation to enhance the solubility. The E. coli competent cell line BL21(DE3) was used for expression of the protein. Cultures were grown at 37° C. for ˜4 hours until the cultures reached an optical density of 2.0 at 600 nm. The cultures were cooled to 20° C. and induced with 1 mM IPTG. Fresh ampicillin was added to a final concentration of 50 μg/mL and the cells were grown overnight at 20° C.
The lysis buffer consisted of 20 mM Tris-HCl, pH 7.4, 500 mM NaCl, 0.5% triton X-100, 1 mM DTT, 1 mM EDTA, 20% glycerol, 0.5 mg/mL lysozyme, 10 mM MgCl2, 15 ug/mL deoxyribonuclease I, and Complete TM protease inhibitor tablets (Roche). After addition of the lysis buffer, frozen cell pellets were resuspended using a tissue homogenizer. To reduce the viscosity of the sample, aliquots of the lysate were sonicated on ice using a microtip attached to a Branson sonicator. The sonicated lysate was centrifuged at 100,000×g for 30 minutes at 4° C. and filtered through a 0.2 μm filter unit (Corning).
The protein was purified using two sequential chromatography steps: Heparin sepharose CL-6B and polyU sepharose 4B. The chromatography buffers were identical to the lysis buffer but contained no lysozyme, deoxyribonuclease I, MgCl2 or protease inhibitor and the NaCl concentration of the buffer was adjusted according to the requirements for charging the protein onto the column. Each column was eluted with a NaCl gradient which varied in length from 5-50 column volumes depending on the column type. […] The enzyme was aliquoted and stored at −80° C.
HCV NS5B RdRp Enzyme Assay.
An on-bead solid phase homogeneous assay was used in a 384-well format to assess NS5B inhibitors (WangY-K, Rigat K, Roberts S, and Gao M (2006) Anal Biochem, 359: 106-111). The biotinylated oligo dT12 primer was captured on streptavidin-coupled imaging beads (GE, RPNQ0261) by mixing primer and beads in 1× buffer and incubating at room temperature for three hours. Unbound primer was removed after centrifugation. The primer-bound beads were resuspended in 3× reaction mix (20 mM Hepes buffer, pH 7.5, dT primer coupled beads, poly A template, ^3H-UTP, and RNAse inhibitor (Promega N2515)). Compounds were serially diluted 1:3 in DMSO and aliquoted into assay plates. Equal volumes (5 μL) of water, 3× reaction mix, and enzyme in 3× assay buffer (60 mM Hepes buffer, pH 7.5, 7.5 mM MgCl2, 7.5 mM KCl, 3 mM DTT, 0.03 mg/mL BSA, 6% glycerol) were added to the diluted compound on the assay plate. Final concentration of components in 384-well assay: 0.36 nM template, 15 nM primer, 0.29 μM ^3H-UTP (0.3 μCi), 1.6 U/4 RNAse inhibitor, 7 nM NS5B enzyme, 0.01 mg/mL BSA, 1 mM DTT, and 0.33 μg/μL beads, 20 mM Hepes buffer, pH 7.5, 2.5 mM MgCl2, 2.5 mM KCl, and 0.1% DMSO.
Reactions were allowed to proceed for 24 hours at 30° C. and terminated by the addition of 50 mM EDTA (5 μL). After incubating for at least 15 minutes, plates were read on an Amersham LEADseeker multimodality imaging system.
IC50 values for compounds were determined using ten different [I]. IC50 values were calculated from the inhibition using the four-parameter logistic formula y=A+((B−A)/(1+((C/x)^D))), where A and B denote minimal and maximal % inhibition, respectively, C is the IC50, D is hill slope and x represents compound concentration.

In the next data set the test system is HCV. The conditions noted are these: extended dosing of the combination regimens with interferon and ribavirin; cited from earlier work.
Setting [3] is: 72 h, genotype 1b replicon, Huh-7, Renilla luciferase, 3 days incubation, read-out: EC50.

These results are taken from US10150747B2, “Compounds for the treatment of hepatitis C” (BRISTOL-MYERS SQUIBB COMPANY, priority 2015, dated 2018).

Like-named read-outs stand apart in the source and are kept apart here.

HCV NS5B genotype 1b (Con1), sequence (Q9WMX2 2420-2992): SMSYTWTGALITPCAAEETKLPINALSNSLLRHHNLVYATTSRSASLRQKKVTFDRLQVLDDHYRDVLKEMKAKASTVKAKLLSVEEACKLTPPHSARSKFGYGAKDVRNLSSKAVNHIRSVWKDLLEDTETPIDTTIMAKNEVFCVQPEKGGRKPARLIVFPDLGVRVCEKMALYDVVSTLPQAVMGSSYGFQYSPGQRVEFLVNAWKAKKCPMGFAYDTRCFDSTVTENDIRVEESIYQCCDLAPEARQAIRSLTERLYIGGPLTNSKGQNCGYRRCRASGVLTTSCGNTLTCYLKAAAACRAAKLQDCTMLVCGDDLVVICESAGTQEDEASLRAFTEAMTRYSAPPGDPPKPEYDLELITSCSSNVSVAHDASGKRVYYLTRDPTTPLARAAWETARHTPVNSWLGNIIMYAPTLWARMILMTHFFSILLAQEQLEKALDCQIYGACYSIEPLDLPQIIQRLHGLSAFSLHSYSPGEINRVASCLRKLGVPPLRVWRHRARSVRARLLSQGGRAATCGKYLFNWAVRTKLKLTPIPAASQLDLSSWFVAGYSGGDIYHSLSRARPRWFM

As for `CNC(=O)c1c(-c2ccc(F)cc2)oc2cc(OCC(F)F)c(-c3cccc(C(=O)NC4(c5ncccn5)CC4)c3)cc12` [Example 20, 6-(2,2-difluoroethoxy)-2-(4-fluorophenyl)-N-methyl-5-(3-((1-(pyrimidin-2-yl)cyclopropyl)carbamoyl)phenyl)benzofuran-3-carboxamide], the EC50 (in general, the midpoint of the concentration-response curve) in data set [1] (Huh-7, 72 h) is 6.79 nM. Moreover, the 50% inhibitory concentration (IC50) (in general, the concentration needed to halve the response being measured) in data set [2] stood at 4.54 nM. For the molecule `CNC(=O)c1c(-c2ccc(F)cc2)oc2cc(OCC(F)(F)F)c(-c3cccc(C(=O)NC(C)(C)c4ncon4)c3)cc12` [Example 21, 5-(3-((2-(1,2,4-oxadiazol-3-yl)propan-2-yl)carbamoyl)phenyl)-2-(4-fluorophenyl)-N-methyl-6-(2,2,2-trifluoroethoxy)benzofuran-3-carboxamide], the EC50 in data set [1] (setting [3]) came out at 10 nM. Besides, in data set [2], the concentration for half-maximal inhibition (IC50) amounted to 4.49 nM. The like results for `CNC(=O)c1c(-c2ccc(F)cc2)oc2cc(OC(C)C)c(-c3ccc(OC)c(C(=O)NC(C)(C)c4ncon4)c3)cc12` [Example 23, 5-(3-((2-(1,2,4-Oxadiazol-3-yl)propan-2-yl)carbamoyl)-4-methoxyphenyl)-2-(4-fluorophenyl)-6-isopropoxy-N-methylbenzofuran-3-carboxamide] were, in that order, 10 nM and 7.14 nM.

Turning to `CCOc1cc2oc(-c3ccc(F)cc3)c(C(=O)NC)c2cc1-c1ccc(CC)c(C(=O)NC(C)(C)c2ncon2)c1` [Example 24, 5-(3-((2-(1,2,4-oxadiazol-3-yl)propan-2-yl)carbamoyl)-4-ethylphenyl)-6-ethoxy-2-(4-fluorophenyl)-N-methylbenzofuran-3-carboxamide], in data set [1] (setting [3]), the EC50 amounted to 280 nM. The molecule also showed a half-inhibitory concentration (IC50) in data set [2] above 2500 nM. As for `CCCOc1cc2oc(-c3ccc(F)cc3)c(C(=O)NC)c2cc1-c1ccc(OC)c(C(=O)NC(C)(C)c2ncon2)c1` [Example 25, 5-(3-((2-(1,2,4-oxadiazol-3-yl)propan-2-yl)carbamoyl)-4-methoxyphenyl)-2-(4-fluorophenyl)-N-methyl-6-propoxybenzofuran-3-carboxamide], the EC50 in data set [1] (setting [3]) is 6.23 nM. In addition, half-maximal inhibition in data set [2] (IC50) was put at 2.48 nM. The like results for `CNC(=O)c1c(-c2ccc(F)cc2)oc2cc(OCC(C)C)c(-c3ccc(OC)c(C(=O)NC(C)(C)c4ncon4)c3)cc12` [Example 26, 5-(3-((2-(1,2,4-oxadiazol-3-yl)propan-2-yl)carbamoyl)-4-methoxyphenyl)-2-(4-fluorophenyl)-6-isobutoxy-N-methylbenzofuran-3-carboxamide] were, in that order, 80 nM and 30 nM.

For `[2H]C([2H])([2H])Oc1ccc(-c2cc3c(C(=O)NC)c(-c4ccc(F)cc4)oc3cc2OCC)cc1C(=O)NC(C)(C)C#N` [Example 28, 5-(3-((2-cyanopropan-2-yl)carbamoyl)-4-(methoxy-d3)phenyl)-6-ethoxy-2-(4-fluorophenyl)-N-methylbenzofuran-3-carboxamide], the EC50 in data set [1] (setting [3]) was 2.01 nM. This molecule showed an IC50 in data set [2] of 2.04 nM. In the same order, the values of `CNC(=O)c1c(-c2ccc(F)cc2)oc2cc(OCC(F)(F)F)c(-c3cnc(OC)c(C(=O)NC4(c5ncccn5)CC4)c3)cc12` [Example 29, 5-(2-(4-Fluorophenyl)-3-(methylcarbamoyl)-6-(2,2,2-trifluoroethoxy)benzofuran-5-yl)-2-methoxy-N-(1-(pyrimidin-2-yl)cyclopropyl)nicotinamide] are 4.57 nM and 2.95 nM. The like results for `CCOc1cc2oc(-c3ccc(F)cc3)c(C(=O)NC)c2cc1-c1cccc(C(=O)NC(C)(C)c2nc3ccncc3[nH]2)c1` [Example 32, 5-(3-((2-(3H-imidazo[4,5-c]pyridin-2-yl)propan-2-yl)carbamoyl)phenyl)-6-ethoxy-2-(4-fluorophenyl)-N-methylbenzofuran-3-carboxamide] were, in that order, 10 nM and 6.01 nM. The like results for `[2H]C([2H])([2H])Oc1ccc(-c2cc3c(C(=O)NC)c(-c4ccc(F)cc4)oc3cc2OCC)cc1C(=O)NC(C)(C)c1ncsn1` [Example 33, 5-(3-((2-(1,2,4-thiadiazol-3-yl)propan-2-yl)carbamoyl)-4-(methoxy-d3)phenyl)-6-ethoxy-2-(4-fluorophenyl)-N-methylbenzofuran-3-carboxamide] were, in that order, 2.49 nM and 2.04 nM. On to `CNC(=O)c1c(-c2ccc(F)cc2)oc2cc(OCCO)c(-c3ccc(OC)c(C(=O)NC(C)(C)c4ncon4)c3)cc12` [Example 34, 5-(3-((2-(1,2,4-Oxadiazol-3-yl)propan-2-yl)carbamoyl)-4-methoxyphenyl)-2-(4-fluorophenyl)-6-(2-hydroxyethoxy)-N-methylbenzofuran-3-carboxamide], for which the EC50 in data set [1] (setting [3]) is 8.31 nM. This molecule returned a half-inhibitory concentration (IC50) in data set [2] of 3.89 nM. As for `CNC(=O)c1c(-c2ccc(F)cc2)oc2cc(N(CCO)S(C)(=O)=O)c(C3CC3)cc12` [HCV-796], the hepatic toxicity entry in the data set with HCV is recorded as “hepatic toxicity”.
